Consider two molecules from patent US20090203778A1, “FATTY ACID ANALOGUES, I.E. INCLUDING DHA DERIVATIVES FOR USES AS A MEDICAMENT” (priority 2005, published 2009).

Data set [1] has as its system adipose prone mice of the C57BL/6J strain. Description: Animal model of metabolic syndrome, adipose prone mice on high-fat diet, 4 months of dietary interventions. The conditions noted are these: for Body weight / Body wt. gain / NEFA / Insulin / TAGs: 4 months; for AUCglucose: intraperitoneal glucose tolerance test; for Insulin: plasma; for TAGs: serum. In kind it is in vivo. How it is done:
An animal model of the metabolic syndrome using the adipose prone mice of the C57BL/6J strain was used to document effects on typical laboratory and pathological anatomical features common for the metabolic syndrome. When given a high fat diet containing about 60% of fat, the animals are getting obese developing high insulin plasma levels, pathological glucose tolerance test, elevated serum triglycerides and non-esterified fatty acids, and fat liver. All experiments were performed on male C57BL/6 mice, either a substrain C57BL/N (supplier: Charles River, Germany, n=160, experiments A-C, see below), or a substrain C57BL/6J (supplier: the Jackson laboratory, Bar Harbor, Me., USA, n=32, experiment D). Total numbers of animals used were higher (n=170 and 36, respectively), because of culling. In the latter case, animals were bred for several generations (<20) at the Institute of Physiology. At the beginning of the treatment, animals were 14-week-old and their body weight range was 23.6-27.1 g. One week before the study start, animals were sorted according to their body weight and assigned to subgroups (n=8) of similar mean body weight. […] The animals eliminated from the study at this stage were sacrificed by cervical dislocation. Complete health check of mice was performed by the supplier Charles River and at the start of study serological tests were performed by ANLAB (Prague, Czech Republic). In addition, regular health checks were performed in the animal house in 3-mo-intervals using sentinel mice and serological examinations (ANLAB). In all the tests, the animals were free of specific pathogens. […] All these compounds were in the form of ethyl esters, provided by Pronova Biocare a.s. in sealed containers. Chemical composition of the PRB-compounds was unknown to the laboratory performing the experiments (Institute of Physiology, Academy of Sciences Prague, Czech Republic). After arrival, the PRB-compound were stored in a refrigerator in original containers. The containers were opened just before preparation of the experimental diets. Diets were kept in plastic bags flushed by nitrogen and stored at −70° C. in small aliquots sufficient for feeding animals for one week. Fresh ratios were given in 2-day intervals or daily. The study was based on 4 individual experiments. […] In each experiment, a subgroup of plain cHF diet-fed mice was included and served as a control. Mice were caged in groups of 4 and fed standard chow diet until 3 mo of age, when animals (n=8-13) were randomly assigned to the different test diets. […] Animals were sacrificed after 4 months on the experimental diets, at 7 mo of age, and the end-point analysis were performed.

Data set [2] concerns liver steatosis in mice fed high fat diet. Kind of data set: Testing of DHA derivatives on liver fat (histology). It is filed as in vivo. The conditions noted are these: eosin-hematoxylin stained liver. The text has this:
Tissue samples from animals in the experiments with DHA derivatives was histologically analysed. After paraffination, tissue samples from liver, adipose tissue, skeletal muscle, pancreas, and kidney were stained with eosin-hematoxylin.

Data set [3] is described as follows: Analysis of intracellular free (non-esterified) fatty acids in liver of animals fed PRB-1. In kind it is in vivo, mice. The note with it: liver tissue, 1.5% of the fat content in diet for 8 weeks. The procedure:
Liver tissue from animals fed PRB-1 was analysed with respect to free unesterified fatty acids. The animals were recruited from Experiment 4 (pharmacodynamic effects of DHA derivatives in an animal model of metabolic syndrome). The animals had been given DHA (15% of fat content of the diet) or the DHA-derivative (1.5% of the fat content in their diet) for 8 weeks and were supposed to be in a steady-state situation with stable levels of DHA and the DHA-derivative intracellularly. Liver tissue was chosen due to the fact that the metabolisation rate is very high in liver.
The liver samples were homogenized in cold PBS buffer, and extracted immediately with chloroform:methanol (2:1) containing 0.2 mM butylated hydroxytoluene (BHT) using cis-10-heptadecenoic acid as internal standard. […] Total protein content was measured using Bio-Rad method after homogenization.
Agilent 1100 system was used for reverse phase column (Supelco Ascentis C18 column, 25 cm×4.6 mm, i.d. 5 μm) separation within 22 min. […] The column elute was identified and quantified in the negative electrospray ionisation applying multiple reaction monitoring mode by triple tandem quadrapole mass/mass (ABI Qtrap-4000). […] The quadratic regression standard curve was used for quantification after internal standard calibration.

Data set [4] deals with T1, PPARγ (Homo sapiens, UniProt P37231).
T1 construct: For full length PPAR transfection studies, each well received 5 μg reporter construct; expressed in transfected cells; host or cells: COS-1 cells (adipocytes transfected with pSG5-PPARγ are also described)
T1 sequence (P37231 1-505): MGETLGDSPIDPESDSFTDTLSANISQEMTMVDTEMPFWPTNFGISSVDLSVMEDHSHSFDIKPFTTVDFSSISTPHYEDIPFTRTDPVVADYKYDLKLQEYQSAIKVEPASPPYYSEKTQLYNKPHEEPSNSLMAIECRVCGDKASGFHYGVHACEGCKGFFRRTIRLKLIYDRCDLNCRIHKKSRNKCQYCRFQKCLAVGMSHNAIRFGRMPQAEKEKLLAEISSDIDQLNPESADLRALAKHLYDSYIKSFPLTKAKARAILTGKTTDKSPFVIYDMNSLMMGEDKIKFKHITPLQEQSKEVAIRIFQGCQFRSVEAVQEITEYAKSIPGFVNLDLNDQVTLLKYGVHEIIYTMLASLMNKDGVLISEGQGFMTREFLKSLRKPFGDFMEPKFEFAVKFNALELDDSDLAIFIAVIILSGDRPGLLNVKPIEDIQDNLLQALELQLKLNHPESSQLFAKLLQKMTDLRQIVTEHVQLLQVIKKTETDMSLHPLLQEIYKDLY
Description: Affinity testing in transfected cells (luciferase release). It is filed as cell-based. The note with it: 10 μM, FIG. 3. The procedure:
Release of luciferase is correlated to transcription of genes. Binding of a ligand to a nuclear receptor such as PPARγ induces transcription of the respective gene thereby releasing luciferase. This technique therefore provides a measure of ligand affinity to the receptor as well as activation of the responsible gene.
Transient transfection of COS-1 cells was performed in 6-well plates as described by Graham and van der Eb (Graham). For full length PPAR transfection studies, each well received 5 μg reporter construct, 2.5 μg pSV-β-galactosidase as an internal control, 0.4 μg pSG5-PPARγ2. The cells were harvested after 72 h, and the luciferase activity was measured according to the protocol (Promega). The luciferase activity was normalised against β-galactosidase activity. The adipocytes were transfected at D11 of differentiation using 16 μL LipofectaminPlus reagent, 4 μl Lipofectamine (Life Technologies Inc.), 0.2 μg pSG5-PPARγ, and 100 ng pTK Renilla luciferase as control of transfection afficiency. […] The luciferase activities were measured as recommended by the manufacturer (Dual Luciferase assay, Promega). […]
Fatty acids (BRL or DHA) and PRB-1 (stock solutions) were solubilized to 0.1 M final concentration in DMSO. […] Luciferase activity was measured using a luminometer (TD-20/20 luminometer; Turner Designs, Sunnycvale, Calif.) and normalized against protein content.

[5] abbreviates: 0.15% of fat content of cHF diet.
The mark [6] stands for this setting: 0.5% of fat content of cHF diet.
[7] abbreviates: 1.5% of fat content of cHF diet.

Turning to `CC/C=C\C/C=C\C/C=C\C/C=C\C/C=C\C/C=C\CCC(=O)O` [DHA, (all-Z)-4,7,10,13,16,19-docosahexaenoic acid], in data set [1] (setting [5]), the Fasted glucose is given as 141 ± 10 mg/dL, the Body weight was found to be 48.3 ± 0.6 grams, the “Body wt. gain” value was 24.3 ± 0.8 grams and the NEFA was found to be 0.96 ± 0.07 mmol/L. Besides, in data set [1] (setting [5]), the AUCglucose is 1477 ± 214 mM × 180 min, the Insulin is 4.31 ± 0.39 ng/mL and the TAGs turned out to be 1.50 ± 0.13 mmol/L. Also, in data set [1] (setting [6]), the Fasted glucose amounted to 136 ± 8 mg/dL, the Body weight turned out to be 46.9 ± 0.7 grams, the Body wt. gain is on record as 22.9 ± 0.7 grams and the NEFA turned out to be 0.89 ± 0.03 mmol/L. Further, in data set [1] (setting [6]), the AUCglucose was 1816 ± 182 mM × 180 min, the Insulin worked out at 5.82 ± 0.47 ng/mL and the TAGs was determined as 1.78 ± 0.08 mmol/L. In data set [1] (setting [7]), the Fasted glucose came to 138 ± 7 mg/dL, the Body weight is 47.1 ± 0.7 grams, the Body wt. gain was 23.0 ± 0.8 grams and the NEFA came to 0.98 ± 0.07 mmol/L. Also, in data set [1] (setting [7]), the AUCglucose turned out to be 2132 ± 288 mM × 180 min, the Insulin came to 6.55 ± 0.31 ng/mL and the TAGs came to 1.91 ± 0.26 mmol/L.

On to `CC/C=C\C/C=C\C/C=C\C/C=C\C/C=C\C/C=C\CC(C)C(=O)OCC` (stereo not drawn) [PRB-1, α-methyl DHA EE], for which, in data set [1] (setting [5]), the Fasted glucose turned out to be 126 ± 15 mg/dL, the Body weight was determined as 47.2 ± 1.3 grams, the NEFA was 0.62 ± 0.04 mmol/L and the AUCglucose is on record as 1291 ± 172 mM × 180 min. The molecule further registered a TAGs in data set [1] (setting [5]) of 1.75 ± 0.08 mmol/L. Besides, in data set [1] (setting [6]), the Fasted glucose came out at 131 ± 7 mg/dL, the Body weight is 47.4 ± 0.6 grams, the Body wt. gain is recorded as 23.8 ± 0.5 grams and the NEFA was determined as 0.73 ± 0.04 mmol/L. Moreover, in data set [1] (setting [6]), the AUCglucose worked out at 1596 ± 205 mM × 180 min, the Insulin came out at 3.93 ± 0.59 ng/mL and the TAGs is 2.03 ± 0.22 mmol/L. Moreover, in data set [1] (setting [7]), the Fasted glucose is on record as 130 ± 14 mg/dL, the Body weight was 44.0 ± 1.5 grams, the Body wt. gain was found to be 20.2 ± 1.3 grams and the NEFA was 0.63 ± 0.03 mmol/L. The TAGs in data set [1] (setting [7]) was 1.58 ± 0.08 mmol/L. In addition, the “degree of fat liver (liver steatosis), histology” value in data set [2] was “low degree of fat liver”. For the same molecule, the “concentration of the DHA-derivative (free unesterified fatty acid) in the liver cells” value in data set [3] is “about 10 μg per g of total amount of protein”. Also, the “release of luciferase from transfected cells” value in data set [4] is on record as “high release of luciferase”.
